Measured values taken from ChEMBL document CHEMBL6109088 (J Med Chem, 2025).

Columns and labels:
in vivo [1] = conditions: male, cynomolgus monkey, po, 10 mg/kg
in vivo [2] = conditions: male, Wistar Hannover, rat, po, 10 mg/kg
in vivo [3] = conditions: male, cynomolgus monkey, po, 100 mg/kg
in vivo [4] = conditions: male, Wistar Hannover, rat, po, 100 mg/kg
in vitro [5] = conditions: human, liver microsomes
in vivo [6] = conditions: male, Wistar Hannover, rat, po, 10 mg/kg; remark: listed apart in the source
in vivo [7] = conditions: male, Wistar Hannover, rat, po, 10 mg/kg; remark: listed apart in the source
in vivo [8] = conditions: male, Wistar Hannover, rat, po, 10 mg/kg; remark: listed apart in the source
in vivo [9] = conditions: male, cynomolgus monkey, po, 100 mg/kg; remark: listed apart in the source
in vivo [10] = conditions: male, cynomolgus monkey, iv, 1 mg/kg
in vivo [11] = conditions: male, Wistar Hannover, rat, plasma, iv, 1 mg/kg
in vivo [12] = conditions: male, Wistar Hannover, rat, po, 10 mg/kg; remark: listed apart in the source
in vivo [13] = conditions: male, cynomolgus monkey, po, 100 mg/kg; remark: listed apart in the source
in vivo [14] = conditions: male, cynomolgus monkey, po, 10 mg/kg; remark: listed apart in the source
in vivo [15] = conditions: male, Wistar Hannover, rat, po, 10 mg/kg; remark: listed apart in the source
in vivo [16] = conditions: male, Wistar Hannover, rat, iv, 1 mg/kg
in vivo [17] = conditions: male, cynomolgus monkey, po, 100 mg/kg; remark: listed apart in the source
in vivo [18] = conditions: male, cynomolgus monkey, po, 10 mg/kg; remark: listed apart in the source
in vitro [19] = conditions: dog, MDCK
in vivo [20] = conditions: male, cynomolgus monkey, po, 100 mg/kg; remark: listed apart in the source
in vivo [21] = conditions: male, Wistar Hannover, rat, po, 100 mg/kg; remark: listed apart in the source
in vivo [22] = conditions: male, cynomolgus monkey, iv, 1 mg/kg; remark: listed apart in the source
in vivo [23] = conditions: male, Wistar Hannover, rat, po, 10 mg/kg; remark: listed apart in the source
in vivo [24] = conditions: male, Wistar Hannover, rat, po, 10 mg/kg; remark: listed apart in the source
in vivo [25] = conditions: male, cynomolgus monkey, iv, 1 mg/kg; remark: listed apart in the source
in vivo [26] = conditions: male, Wistar Hannover, rat, po, 100 mg/kg; remark: listed apart in the source
in vivo [27] = conditions: male, Wistar Hannover, rat, po, 100 mg/kg; remark: listed apart in the source
in vivo [28] = conditions: male, cynomolgus monkey, plasma, iv, 1 mg/kg
in vivo [29] = conditions: male, Wistar Hannover, rat, po, 100 mg/kg; remark: listed apart in the source
in vivo [30] = conditions: male, Wistar Hannover, rat, iv, 1 mg/kg; remark: listed apart in the source
in vivo [31] = conditions: male, cynomolgus monkey, po, 100 mg/kg; remark: listed apart in the source
in vivo [32] = conditions: male, Wistar Hannover, rat, po, 100 mg/kg; remark: listed apart in the source
in vivo [33] = conditions: rat, po
SARS-CoV-2 = assay: microbe, parasite or virus in culture; conditions: Severe acute respiratory syndrome coronavirus 2, USA-WA1/2020, Vero C1008
physchem = conditions: octanol/water

SMILES: CC(C)(C)[C@H](NC(=O)C(F)(F)F)C(=O)N1C[C@H]2[C@@H]([C@H]1C(=O)N[C@H](C#N)C[C@@H]1CCNC1=O)C2(C)C
- Cmax (in vivo [1]): 1.45 µg/mL
- Tmax at 4 h (in vivo [2]): 1.5 h
- Cmax (in vivo [3]): 16.3 µg/mL
- bioavailability at 4 h (in vivo [4]): 108%
- microsomal CLint (in vitro [5]): 24.5 µL/min/mg
- half-life at 4 h (in vivo [6]): 2.8 h
- Cmax at 4 h (in vivo [7]): 1.29 µg/mL
- AUC(0-inf) at 4 h (in vivo [8]): 3.19 µg·h/mL
- AUC(0-inf) (in vivo [9]): 4.4 µg·h/mL
- half-life (in vivo [10]): 0.79 h
- clearance at 4 h (in vivo [11]): 1.63 L/h/kg
- bioavailability at 4 h (in vivo [12]): 50%
- Cmax (in vivo [13]): 1.56 µg/mL
- AUC(0-t) (in vivo [14]): 0.831 µg·h/mL
- Cmax at 4 h (in vivo [15]): 1.45 µg/mL
- Vd at 4 h (in vivo [16]): 1.8 L/kg
- AUC(0-inf) (in vivo [17]): 37.2 µg·h/mL
- bioavailability (in vivo [18]): 8.5%
- Papp A→B (in vitro [19]): 17.1 nm/s
- Tmax (in vivo [20]): 1 h
- AUC(0-inf) at 4 h (in vivo [21]): 18 µg·h/mL
- Vd (in vivo [22]): 0.33 L/kg
- AUC(0-inf) at 4 h (in vivo [23]): 2.17 µg·h/mL
- half-life at 4 h (in vivo [24]): 4 h
- AUC(0-inf) (in vivo [25]): 0.977 µg·h/mL
- AUC(0-inf) at 4 h (in vivo [26]): 68.3 µg·h/mL
- Tmax at 4 h (in vivo [27]): 1.4 h
- clearance (in vivo [28]): 1.03 L/h/kg
- Tmax at 4 h (in vivo [29]): 0.75 h
- half-life at 4 h (in vivo [30]): 5.1 h
- Tmax (in vivo [31]): 0.5 h
- bioavailability at 4 h (in vivo [32]): 29%

SMILES: CNC(=O)N[C@H](C(=O)N1C[C@H]2[C@@H]([C@H]1C(=O)N[C@H](C#N)C[C@@H]1CCNC1=O)C2(C)C)C(C)(C)C
- microsomal CLint (in vitro [5]): < 7.12 µL/min/mg
- Papp A→B (in vitro [19]): 6.2 nm/s

SMILES: CC(C)[C@H](NC(=O)C(F)(F)F)C(=O)N1C[C@H]2[C@@H]([C@H]1C(=O)N[C@H](C#N)C[C@@H]1CCNC1=O)C2(C)C
- microsomal CLint (in vitro [5]): 7.9 µL/min/mg
- Papp A→B (in vitro [19]): 7.21 nm/s
- bioavailability (in vivo [33]): 20%
- EC50 (SARS-CoV-2): 0.229 µM

SMILES: COC(=O)N[C@H](C(=O)N1C[C@H]2[C@@H]([C@H]1C(=O)N[C@H](C#N)C[C@@H]1CCNC1=O)C2(C)C)C(C)(C)C
- microsomal CLint (in vitro [5]): 8.1 µL/min/mg
- Papp A→B (in vitro [19]): 6.1 nm/s
- bioavailability (in vivo [33]): 21%

SMILES: CC(=O)N[C@H](C(=O)N1C[C@H]2[C@@H]([C@H]1C(=O)N[C@H](C#N)C[C@@H]1CCNC1=O)C2(C)C)C(C)(C)C
- microsomal CLint (in vitro [5]): < 7 µL/min/mg
- Papp A→B (in vitro [19]): < 3.02 nm/s
- bioavailability (in vivo [33]): 2.8%
- EC50 (SARS-CoV-2): 5.31 µM

SMILES: COc1cccc2[nH]c(C(=O)N[C@@H](CC(C)C)C(=O)N[C@H](C#N)C[C@@H]3CCNC3=O)cc12
- Papp A→B (in vitro [19]): 9.45 nm/s
- bioavailability (in vivo [33]): 7%

SMILES: CC(C)(C)[C@H](NC(=O)C(F)(F)F)C(=O)N1C[C@H]2[C@@H]([C@H]1C(=O)N[C@@H](C[C@@H]1CCNC1=O)C(=O)CO)C2(C)C
- microsomal CLint (in vitro [5]): < 7 µL/min/mg
- Papp A→B (in vitro [19]): < 4.81 nm/s
- EC50 (SARS-CoV-2): < 0.331 µM

SMILES: CC(C)(C)[C@H](NS(=O)(=O)C(F)(F)F)C(=O)N1C[C@H]2[C@@H]([C@H]1C(=O)N[C@H](C#N)C[C@@H]1CCNC1=O)C2(C)C
- microsomal CLint (in vitro [5]): < 7.47 µL/min/mg
- Papp A→B (in vitro [19]): 7 nm/s
- EC50 (SARS-CoV-2): 0.179 µM

SMILES: COc1cccc2[nH]c(C(=O)N3C[C@H]4[C@@H]([C@H]3C(=O)N[C@@H](C[C@@H]3CCNC3=O)C(=O)c3nc5ccccc5s3)C4(C)C)cc12
- logD (physchem): 4.2
- microsomal CLint (in vitro [5]): 337 µL/min/mg
- Papp A→B (in vitro [19]): 73 nm/s
- EC50 (SARS-CoV-2): 5.59 µM

SMILES: CC(=O)N[C@H](C(=O)N1C[C@H]2[C@@H]([C@H]1C(=O)N[C@@H](C[C@@H]1CCNC1=O)C(=O)c1nc3ccccc3s1)C2(C)C)C(C)(C)C
- logD (physchem): 2.4
- microsomal CLint (in vitro [5]): 27 µL/min/mg
- Papp A→B (in vitro [19]): 7 nm/s
- EC50 (SARS-CoV-2): 0.702 µM

SMILES: COCC(=O)[C@H](C[C@@H]1CCNC1=O)NC(=O)[C@@H]1[C@@H]2[C@H](CN1C(=O)[C@@H](NC(=O)C(F)(F)F)C(C)(C)C)C2(C)C
- microsomal CLint (in vitro [5]): 11.8 µL/min/mg
- Papp A→B (in vitro [19]): 4.99 nm/s
- EC50 (SARS-CoV-2): 0.134 µM
